Results published in patent publication US20250144067A1, “PERSONALIZED STARVATION THERAPY FOR CANCER” (Faeth Therapeutics, Inc., priority 2021, published 2025).
Structures can show the parent of a compound that is named as a salt. Where two headings read alike, the source gives them in different places.

Experiments:
[1] = tested on: NCI-H292 lung cancer cells; assay: FDA drug screening, complete media vs cholesterol-free media without statin (TABLE 1); format: cell-based, human
[2] = tested on: NCI-H292 lung cancer cells; assay: FDA drug screening, complete media vs cholesterol-free media with simvastatin (TABLE 2); format: cell-based, human
[3] = NCI-H292 cells, cholesterol-free media without statin, FDA drug library screen
[4] = NCI-H292 cells, complete media, FDA drug library screen
[5] = NCI-H292 cells, FDA drug library screen, cholesterol-free media with simvastatin 0.04 μM
[6] = NCI-H292 cells, FDA drug library screen, complete media
[7] = complete media vs cholesterol-free media + simvastatin (0.04 μM), […]
[8] = Complete minus Cholesterol-free, greater than 0 enhanced anti-cancer activity, about 0 neutral, below 0 antagonist
[9] = NCI-H292 cells, FDA drug library screen, cholesterol-free media without statin
[10] = NCI-H292 cells, cholesterol-free media with simvastatin 0.04 μM, cell growth value in FDA drug screen
[11] = NCI-H292 cells, complete media, cell growth value in FDA drug screen
[12] = complete media minus cholesterol-free media + simvastatin, >0 enhanced anti-cancer activity, about 0 neutral, <0 antagonist
[13] = Complete minus Cholesterol-free, >0 enhanced anti-cancer activity, about 0 neutral, <0 antagonist
[14] = NCI-H292 cells, cholesterol-free media with simvastatin 0.04 μM, FDA drug library screen (TABLE 2)
[15] = NCI-H292 cells, complete media, FDA drug library screen (TABLE 2)
[16] = complete media minus cholesterol-free media + simvastatin (0.04 μM), >0 enhanced anti-cancer activity, about 0 neutral, <0 antagonist
[17] = complete vs cholesterol-free media, >0 enhanced anti-cancer activity, about 0 neutral, <0 antagonist
[18] = NCI-H292 cells, drug in cholesterol-free media with simvastatin 0.04 μM
[19] = NCI-H292 cells, drug in complete media
[20] = complete media vs cholesterol-free media + simvastatin (0.04 μM), >0 enhanced anti-cancer activity, about 0 neutral, <0 antagonist
[21] = NCI-H292 cells in cholesterol-free media without statin
[22] = NCI-H292 cells in complete media
[23] = NCI-H292 cells, FDA library drug in cholesterol-free media with simvastatin 0.04 μM
[24] = NCI-H292 cells, FDA library drug in complete media
[25] = NCI-H292 cells, cholesterol-free media without statin
[26] = complete vs cholesterol-free media, greater than 0 enhanced anti-cancer activity, about 0 neutral, below 0 antagonists

CC[C@H]1OC(=O)[C@H](C)[C@@H](O[C@H]2C[C@@](C)(OC)[C@@H](O)[C@H](C)O2)[C@H](C)[C@@H](O[C@@H]2O[C@H](C)C[C@H](N(C)C)[C@H]2O)[C@](C)(O)C[C@@H](C)C(=O)[C@H](C)[C@H]2OC(=O)O[C@@]21C [Davercin]
Cholesterol-free [1, 3]: 0.5403 | Complete [1, 4]: 0.9622 | Difference ([1]; complete vs cholesterol-free media, […]): 0.42 | Cholesterol-free media + simvastatin (0.04 μM) [2, 5]: 1.064 | Complete Media [2, 6]: 0.9657 | Difference [2, 7]: −0.10

Mafenide (Acetate)
Difference [1, 8]: −0.16 | Cholesterol-free [1, 9]: 1.179 | Complete [1, 6]: 1.017 | Cholesterol-free media + simvastatin (0.04 μM) [2, 10]: 0.8255 | Complete Media [2, 11]: 0.8982 | Difference [2, 12]: 0.07

CC12CC3CC(C)(C1)CC(N)(C3)C2 [Memantine (hydrochloride)]
Difference [1, 8]: −0.14 | Cholesterol-free [1, 9]: 0.8008 | Complete [1, 6]: 0.656 | Cholesterol-free media + simvastatin (0.04 μM) [2, 10]: 0.8007 | Complete Media [2, 11]: 0.853 | Difference [2, 12]: 0.05

Cn1c(=O)c2[nH]c(Br)nc2n(C)c1=O [Pamabrom]
Difference [1, 8]: −0.16 | Cholesterol-free [1, 9]: 0.9285 | Complete [1, 6]: 0.7717 | Cholesterol-free media + simvastatin (0.04 μM) [2, 10]: 0.9207 | Complete Media [2, 11]: 0.9433 | Difference [2, 12]: 0.02

NC[C@H](O)c1ccc(O)c(O)c1 [Norepinephrine]
Difference [1, 13]: −0.02 | Cholesterol-free [1, 3]: 0.981 | Complete [1, 4]: 0.9634 | Cholesterol-free media + simvastatin (0.04 μM) [2, 14]: 0.9481 | Complete Media [2, 15]: 0.884 | Difference [2, 16]: −0.06

CCCCC(=O)OCC(=O)[C@]1(O)Cc2c(O)c3c(c(O)c2[C@@H](O[C@H]2C[C@H](NC(=O)C(F)(F)F)[C@H](O)[C@H](C)O2)C1)C(=O)c1c(OC)cccc1C3=O [Valrubicin]
Difference [1, 13]: 0.02 | Cholesterol-free [1, 3]: 0.04622 | Complete [1, 4]: 0.06624 | Cholesterol-free media + simvastatin (0.04 μM) [2, 10]: 0.07499 | Complete Media [2, 11]: 0.1845 | Difference [2, 12]: 0.11

CC(=O)OCC1=C(C(=O)O)N2C(=O)[C@@H](NC(=O)Cc3cccs3)[C@H]2SC1 [Cephalothin (sodium)]
Cholesterol-free [1, 3]: 0.5607 | Complete [1, 4]: 1.228 | Difference [1, 17]: 0.67 | Cholesterol-free media + simvastatin (0.04 μM) [2, 18]: 0.9867 | Complete Media [2, 19]: 0.7901 | Difference [2, 20]: −0.20

Sodium tauroglycocholate
Difference ([1]; Complete minus Cholesterol-free, […]): −0.95 | Cholesterol-free [1, 21]: 1.712 | Complete [1, 22]: 0.7634 | Cholesterol-free media + simvastatin (0.04 μM) [2, 23]: 1.256 | Complete Media [2, 24]: 0.9729 | Difference [2, 7]: −0.28

CN1[C@@H]2CC[C@H]1C[C@@H](OC(=O)C(CO)c1ccccc1)C2 (stereo partly drawn) [Atropine]
Cholesterol-free [1]: 1.317 | Complete [1]: 0.8977 | Difference [1]: −0.42 | Cholesterol-free media + simvastatin (0.04 μM) [2]: 1.317 | Difference [2]: −0.28

Rucaparib (phosphate)
Cholesterol-free [1, 3]: 0.6538 | Complete [1, 4]: 0.9448 | Difference [1, 17]: 0.29 | Complete Media [2, 15]: 1.39 | Difference [2, 16]: −0.02

CC(=O)O[C@H]1CC[C@@]2(C)C(=CC[C@@H]3[C@@H]2CC[C@]2(C)C(c4cccnc4)=CC[C@@H]32)C1 [Abiraterone acetate]
Cholesterol-free [1, 3]: 0.5232 | Complete [1, 4]: 1.307 | Difference [1, 17]: 0.78 | Cholesterol-free media + simvastatin (0.04 μM) [2, 23]: 1.209 | Complete Media [2, 24]: 0.9 | Difference [2, 20]: −0.31

CN1CCN(C2=Nc3cc(Cl)ccc3Nc3ccccc32)CC1 [Clozapine]
Difference [1, 13]: −0.23 | Cholesterol-free [1, 25]: 1.346 | Complete ([1]; NCI-H292 cells, complete media): 1.114 | Cholesterol-free media + simvastatin (0.04 μM) [2, 5]: 0.8452 | Complete Media [2, 6]: 1.094 | Difference [2, 12]: 0.25

NCC(=O)O [Glycine]
Difference ([1]; Complete minus Cholesterol-free, greater than 0 enhanced anti-cancer activity, about 0 neutral, below 0 antagonists): −0.56 | Cholesterol-free [1, 21]: 1.569 | Complete [1, 22]: 1.011 | Cholesterol-free media + simvastatin (0.04 μM) [2, 23]: 1.249 | Complete Media [2, 24]: 0.983 | Difference [2, 20]: −0.27

NCCS [Cysteamine hydrochloride]
Cholesterol-free [1, 3]: 1.255 | Complete [1, 4]: 1.431 | Difference [1, 17]: 0.18 | Cholesterol-free media + simvastatin (0.04 μM) [2, 5]: 0.9975 | Complete Media [2, 6]: 0.86 | Difference [2, 20]: −0.14

O=C([O-])CCCc1ccccc1.[Na+] [Sodium 4-phenylbutyrate]
Cholesterol-free [1, 3]: 0.7629 | Complete [1, 4]: 1.099 | Difference [1, 17]: 0.34 | Cholesterol-free media + simvastatin (0.04 μM) [2, 18]: 1.094 | Complete Media [2, 19]: 0.9051 | Difference [2, 20]: −0.19

O=c1c(O[C@@H]2O[C@H](CO)[C@H](O)[C@H](O)[C@H]2O)c(-c2ccc(O)c(O)c2)oc2cc(O)cc(O)c12 [Hyperoside]
Difference [1, 13]: −0.03 | Cholesterol-free [1, 3]: 0.9192 | Complete [1, 4]: 0.8906 | Cholesterol-free media + simvastatin (0.04 μM) [2, 5]: 0.9665 | Complete Media [2, 6]: 0.8144 | Difference [2, 20]: −0.15

COc1cc2c(cc1OC)[C@H]1C[C@@H](OC(=O)[C@@H](N)C(C)C)[C@H](CC(C)C)CN1CC2 [Valbenazine]
Difference [1, 8]: −0.16 | Cholesterol-free [1, 9]: 1.298 | Complete [1, 6]: 1.135 | Cholesterol-free media + simvastatin (0.04 μM) [2, 23]: 1.305 | Complete Media [2, 24]: 1.011 | Difference [2, 20]: −0.29

COc1ccc2cc3[n+](cc2c1OC)CCc1cc2c(cc1-3)OCO2.O.[Cl-] [Berberine (chloride hydrate)]
Difference [1, 8]: −0.18 | Cholesterol-free [1, 9]: 0.263 | Complete [1, 6]: 0.07956 | Cholesterol-free media + simvastatin (0.04 μM) [2, 14]: 0.3813 | Complete Media [2, 15]: 0.3495 | Difference [2, 16]: −0.03

NS(=O)(=O)c1cc(Cl)c(Cl)c(S(N)(=O)=O)c1 [Dichlorphenamide]
Difference [1, 8]: −0.08 | Cholesterol-free [1, 9]: 1.046 | Complete [1, 6]: 0.9714 | Cholesterol-free media + simvastatin (0.04 μM) [2, 14]: 1.117 | Complete Media [2, 15]: 1.073 | Difference [2, 16]: −0.04

Rupatadine (Fumarate)
Difference [1, 13]: −0.23 | Cholesterol-free [1, 25]: 1.308 | Cholesterol-free media + simvastatin (0.04 μM) [2, 5]: 0.9792 | Complete Media [2, 6]: 1.536 | Difference [2, 12]: 0.56

CCCC1O[C@@H]2C[C@H]3[C@@H]4CCC5=CC(=O)C=C[C@]5(C)[C@H]4[C@@H](O)C[C@]3(C)[C@]2(C(=O)CO)O1 (stereo partly drawn) [Budesonide]
Cholesterol-free [1, 3]: 0.6924 | Complete [1, 4]: 1.034 | Difference [1, 17]: 0.34 | Cholesterol-free media + simvastatin (0.04 μM) [2, 23]: 1.254 | Complete Media [2, 24]: 0.6405 | Difference [2, 20]: −0.61

CN1C(C(=O)Nc2ccccn2)=C(O)c2sc(Cl)cc2S1(=O)=O [Lornoxicam]
Cholesterol-free [1, 25]: 1.174 | Complete ([1]; NCI-H292 cells, complete media): 0.811 | Difference [1, 26]: −0.36 | Cholesterol-free media + simvastatin (0.04 μM) [2, 5]: 1.072 | Complete Media [2, 6]: 0.9888 | Difference [2, 20]: −0.08

CC1=NS(=O)(=O)c2cc(Cl)ccc2N1 [Diazoxide]
Cholesterol-free [1, 25]: 1.261 | Complete ([1]; NCI-H292 cells, complete media): 0.9038 | Difference [1, 26]: −0.36 | Cholesterol-free media + simvastatin (0.04 μM) [2, 10]: 0.9722 | Complete Media [2, 11]: 1.066 | Difference [2, 12]: 0.09
